Experimental data taken from ChEMBL document CHEMBL1201862, “PubChem BioAssay data set” (2004).
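Step 1: Grow cells in 96-well plates. Step 2: Expose to compound for 48 hours at 5 concentrations. Step 3: Interpolate endpoints linearly; if unreached, use highest concentration. Abbreviation: GI50, concentration required for 50% inhibition of growth.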 The source made the active and inactive calls. Rule as the data show it: active = GI50 up to about 1.1 µM and inactive = higher. Non-standard residues stand in square brackets, D forms with d. Residues, ends and D or L forms follow the SMILES beside them. *: point of attachment. Phe(4-NO2) = N[CH](Cc1ccc([N+](=O)[O-])cc1)C(=O)O; Boc = CC(C)(C)OC(=O)*

How the values were obtained:
Experiment in all cases: inhibition of tumour cell growth, NCI panel, 48 h
[1] = tested on: CCRF-CEM
[2] = tested on: OVCAR-3
[3] = tested on: SR
[4] = tested on: A549
[5] = tested on: SNB-19
[6] = tested on: CAKI-1
[7] = tested on: SK-MEL-2
[8] = tested on: OVCAR-4
[9] = tested on: UACC-62
[10] = tested on: ACHN
[11] = tested on: OVCAR-5
[12] = tested on: 786-0
[13] = tested on: NCI-H460
[14] = tested on: LOX IMVI
[15] = tested on: NCI-H226
[16] = tested on: SF-539
[17] = tested on: EKVX
[18] = tested on: OVCAR-8
[19] = tested on: MDA-N
[20] = tested on: Hs-578T

Structure (SMILES) | GI50 [1] | GI50 [2] | GI50 [3] | GI50 [4] | GI50 [5] | GI50 [6] | GI50 [7] | GI50 [8] | GI50 [9] | GI50 [10] | GI50 [11] | GI50 [12] | GI50 [13] | GI50 [14] | GI50 [15] | GI50 [16] | GI50 [17] | GI50 [18] | GI50 [19] | GI50 [20]
N#CC(C#N)=Cc1c[nH]c(=O)[nH]c1=O | 17.8 µM (inactive) | > 100 µM (inactive) | 0.152 µM (active) | > 100 µM (inactive) | > 100 µM (inactive) | > 100 µM (inactive) | > 100 µM (inactive) | > 100 µM (inactive) | > 100 µM (inactive) | > 100 µM (inactive) | > 100 µM (inactive) | > 100 µM (inactive) | > 100 µM (inactive) | > 100 µM (inactive) | > 100 µM (inactive) | > 100 µM (inactive) | > 100 µM (inactive) | > 100 µM (inactive) | > 100 µM (inactive) | > 100 µM (inactive)
CCOC(=O)C1=CN/C(=C(/C)C(=O)OC)SC1C(=O)OCC (stereo not given) | > 61 µM (inactive) | > 100 µM (inactive) | 47.8 µM (inactive) | > 100 µM (inactive) | 98.2 µM (inactive) | > 100 µM (inactive) | > 100 µM (inactive) | > 100 µM (inactive) | > 100 µM (inactive) | > 100 µM (inactive) | > 100 µM (inactive) | > 100 µM (inactive) | > 90.4 µM (inactive) | > 100 µM (inactive) | > 100 µM (inactive) | > 100 µM (inactive) | > 100 µM (inactive) | > 100 µM (inactive) | > 100 µM (inactive) | > 100 µM (inactive)
CN(C)c1ccc(C2ON=C(c3ccccc3)N2C23CC4CC(CC(C4)C2)C3)cc1 (stereo not given) | > 10 µM (inactive) | > 10 µM (inactive) | 8.02 µM (inactive) | > 10 µM (inactive) | > 10 µM (inactive) | > 10 µM (inactive) | > 10 µM (inactive) | > 10 µM (inactive) | > 10 µM (inactive) | > 10 µM (inactive) | > 10 µM (inactive) | > 10 µM (inactive) | > 10 µM (inactive) | > 10 µM (inactive) | > 10 µM (inactive) | > 10 µM (inactive) | > 10 µM (inactive) | > 10 µM (inactive) | > 10 µM (inactive) | > 10 µM (inactive)
COC(=O)CCC(NC(=O)OC(C)(C)C)C(=O)NC(Cc1ccc([N+](=O)[O-])cc1)C(=O)NC(CCC(=O)OC)C(=O)OC (stereo not given) (Boc-Glu(OMe)-[Phe(4-NO2)]-Glu(OMe)-OMe; configuration not given here) | 12.3 µM (inactive) | > 100 µM (inactive) | 28.8 µM (inactive) | > 100 µM (inactive) | > 100 µM (inactive) | > 100 µM (inactive) | > 100 µM (inactive) | > 100 µM (inactive) | > 100 µM (inactive) | > 100 µM (inactive) | > 100 µM (inactive) | > 100 µM (inactive) | 60.3 µM (inactive) | 26.6 µM (inactive) | 74.8 µM (inactive) | 43.5 µM (inactive) | > 100 µM (inactive) | > 100 µM (inactive) | > 100 µM (inactive) | > 100 µM (inactive)
